Species on record: Rattus norvegicus
Assay: DrugMatrix - Regimen: Daily Repeat
Assay type: toxicity, organism-based, Sprague-Dawley
Design: regimen Daily Repeat, gender Male, age 6-8 weeks
Settings: in vivo, po, route oral GAVAGE, vehicle .5 % CMC; for ABSOLUTE BASOPHIL / ABSOLUTE EOSINOPHIL / ABSOLUTE LYMPHOCYTE / ABSOLUTE MONOCYTE / ABSOLUTE SEGMENTED NEUTROPHIL / BASOPHIL / EOSINOPHIL / ERYTHROCYTE COUNT / HEMATOCRIT / HEMOGLOBIN / LEUKOCYTE COUNT / LYMPHOCYTE / MEAN CORPUSCULAR HEMOGLOBIN / MEAN CORPUSCULAR HEMOGLOBIN CONCENTRATION / MEAN CORPUSCULAR VOLUME / MONOCYTE / NEUTROPHIL / NUCLEATED RED BLOOD CELLS / PLATELET COUNT: tissue Blood; for ALANINE AMINOTRANSFERASE / ALBUMIN / ALKALINE PHOSPHATASE / ASPARTATE AMINOTRANSFERASE / BLOOD UREA NITROGEN / CARBON DIOXIDE / CHLORIDE / CHOLESTEROL / CREATINE PHOSPHOKINASE / CREATININE / GLUCOSE / LACTATE DEHYDROGENASE / LIPASE / PHOSPHORUS / POTASSIUM / SODIUM / TOTAL BILIRUBIN / TOTAL PROTEIN / URIC ACID: tissue Plasma
[1] = 0 mg/kg, 72 h, dose level Control, time 3 day
[2] = 0 mg/kg, 120 h, dose level Control, time 5 day
[3] = 10 mg/kg, 72 h, dose level Low, time 3 day

Compound: COc1c(C)c2c(c(O)c1C/C=C(\C)CCC(=O)OCCN1CCOCC1)C(=O)OC2 [MYCOPHENOLATE MOFETIL]
- ABSOLUTE BASOPHIL [1]: 0 CELLS/uL
- ABSOLUTE EOSINOPHIL [1]: 0 CELLS/uL
- ABSOLUTE LYMPHOCYTE [1]: 12191.17 CELLS/uL
- ABSOLUTE MONOCYTE [1]: 183.17 CELLS/uL
- ABSOLUTE SEGMENTED NEUTROPHIL [1]: 1192.33 CELLS/uL
- BASOPHIL [1]: 0%
- EOSINOPHIL [1]: 0%
- ERYTHROCYTE COUNT [1]: 5.51 x10E6/uL
- HEMATOCRIT [1]: 35.45%
- HEMOGLOBIN [1]: 13.82 G/DL
- LEUKOCYTE COUNT [1]: 13.57 x10E3/uL
- LYMPHOCYTE [1]: 89.83%
- MEAN CORPUSCULAR HEMOGLOBIN [1]: 25.1 pg
- MEAN CORPUSCULAR HEMOGLOBIN CONCENTRATION [1]: 38.98 G/DL
- MEAN CORPUSCULAR VOLUME [1]: 64.42 fL
- MONOCYTE [1]: 1.33%
- NEUTROPHIL [1]: 8.83%
- NUCLEATED RED BLOOD CELLS [1]: 0 /100WBC
- PLATELET COUNT [1]: 1118.17 x10E3/uL
- ALANINE AMINOTRANSFERASE [1]: 55 u/L
- ALBUMIN [1]: 4.15 G/DL
- ALKALINE PHOSPHATASE [1]: 449.5 u/L
- ASPARTATE AMINOTRANSFERASE [1]: 112.83 u/L
- BLOOD UREA NITROGEN [1]: 17.33 mg/dL
- CARBON DIOXIDE [1]: 29.5 mmol/L
- CHLORIDE [1]: 101 MEQ/L
- CHOLESTEROL [1]: 70 mg/dL
- CREATINE PHOSPHOKINASE [1]: 1325.83 u/L
- CREATININE [1]: 0.18 mg/dL
- GLUCOSE [1]: 171.5 mg/dL
- LACTATE DEHYDROGENASE [1]: 386 u/L
- LIPASE [1]: 10 u/L
- PHOSPHORUS [1]: 11.57 mg/dL
- POTASSIUM [1]: 6.21 MEQ/L
- SODIUM [1]: 141.65 MEQ/L
- TOTAL BILIRUBIN [1]: 0.15 mg/dL
- TOTAL PROTEIN [1]: 5.75 G/DL
- URIC ACID [1]: 1.28 mg/dL
- ABSOLUTE BASOPHIL [2]: 0 CELLS/uL
- ABSOLUTE EOSINOPHIL [2]: 138.17 CELLS/uL
- ABSOLUTE LYMPHOCYTE [2]: 13283.17 CELLS/uL
- ABSOLUTE MONOCYTE [2]: 303.83 CELLS/uL
- ABSOLUTE SEGMENTED NEUTROPHIL [2]: 1308.17 CELLS/uL
- BASOPHIL [2]: 0%
- EOSINOPHIL [2]: 1%
- ERYTHROCYTE COUNT [2]: 5.32 x10E6/uL
- HEMATOCRIT [2]: 33.8%
- HEMOGLOBIN [2]: 13.63 G/DL
- LEUKOCYTE COUNT [2]: 15.03 x10E3/uL
- LYMPHOCYTE [2]: 88.33%
- MEAN CORPUSCULAR HEMOGLOBIN [2]: 25.68 pg
- MEAN CORPUSCULAR HEMOGLOBIN CONCENTRATION [2]: 40.35 G/DL
- MEAN CORPUSCULAR VOLUME [2]: 63.67 fL
- MONOCYTE [2]: 1.83%
- NEUTROPHIL [2]: 8.83%
- NUCLEATED RED BLOOD CELLS [2]: 0 /100WBC
- PLATELET COUNT [2]: 1097.5 x10E3/uL
- ALANINE AMINOTRANSFERASE [2]: 54.5 u/L
- ALBUMIN [2]: 4.27 G/DL
- ALKALINE PHOSPHATASE [2]: 337 u/L
- ASPARTATE AMINOTRANSFERASE [2]: 94.67 u/L
- BLOOD UREA NITROGEN [2]: 17 mg/dL
- CARBON DIOXIDE [2]: 28.33 mmol/L
- CHLORIDE [2]: 101.5 MEQ/L
- CHOLESTEROL [2]: 71.33 mg/dL
- CREATINE PHOSPHOKINASE [2]: 628.17 u/L
- CREATININE [2]: 0.19 mg/dL
- GLUCOSE [2]: 177.83 mg/dL
- LACTATE DEHYDROGENASE [2]: 500.5 u/L
- LIPASE [2]: 9.5 u/L
- PHOSPHORUS [2]: 12.3 mg/dL
- POTASSIUM [2]: 5.63 MEQ/L
- SODIUM [2]: 143.03 MEQ/L
- TOTAL BILIRUBIN [2]: 0.2 mg/dL
- TOTAL PROTEIN [2]: 6.02 G/DL
- URIC ACID [2]: 1.5 mg/dL
- ABSOLUTE BASOPHIL [3]: 0 CELLS/uL
- ABSOLUTE EOSINOPHIL [3]: 76.67 CELLS/uL
- ABSOLUTE LYMPHOCYTE [3]: 12148 CELLS/uL
- ABSOLUTE MONOCYTE [3]: 38.33 CELLS/uL
- ABSOLUTE SEGMENTED NEUTROPHIL [3]: 870.33 CELLS/uL
- BASOPHIL [3]: 0%
- EOSINOPHIL [3]: 0.67%
- ERYTHROCYTE COUNT [3]: 5.1 x10E6/uL
- HEMATOCRIT [3]: 32.07%
- HEMOGLOBIN [3]: 13.3 G/DL
- LEUKOCYTE COUNT [3]: 13.13 x10E3/uL
- LYMPHOCYTE [3]: 92%
- MEAN CORPUSCULAR HEMOGLOBIN [3]: 26.1 pg
- MEAN CORPUSCULAR HEMOGLOBIN CONCENTRATION [3]: 41.47 G/DL
- MEAN CORPUSCULAR VOLUME [3]: 62.87 fL
- MONOCYTE [3]: 0.33%
- NEUTROPHIL [3]: 7%
- NUCLEATED RED BLOOD CELLS [3]: 0 /100WBC
- PLATELET COUNT [3]: 1283 x10E3/uL
- ALANINE AMINOTRANSFERASE [3]: 58 u/L
- ALBUMIN [3]: 4.13 G/DL
- ALKALINE PHOSPHATASE [3]: 363.33 u/L
- ASPARTATE AMINOTRANSFERASE [3]: 110.33 u/L
- BLOOD UREA NITROGEN [3]: 16.33 mg/dL
- CARBON DIOXIDE [3]: 26.33 mmol/L
- CHLORIDE [3]: 102.67 MEQ/L
- CHOLESTEROL [3]: 70.67 mg/dL
- CREATINE PHOSPHOKINASE [3]: 1302.67 u/L
- CREATININE [3]: 0.14 mg/dL
- GLUCOSE [3]: 164 mg/dL
- LACTATE DEHYDROGENASE [3]: 334.67 u/L
- LIPASE [3]: 9.67 u/L
- PHOSPHORUS [3]: 13.07 mg/dL
- POTASSIUM [3]: 5.93 MEQ/L
- SODIUM [3]: 144.23 MEQ/L
- TOTAL BILIRUBIN [3]: 0.1 mg/dL
- TOTAL PROTEIN [3]: 5.53 G/DL
- URIC ACID [3]: 1.57 mg/dL
